Assay results as given in US20170168056A1, “METHODS AND COMPOSITIONS FOR DETECTING AND MODULATING CANCER CELLS” (Massachusetts Institute of Technology, priority 2015, published 2017).

Key:
MDA-MB-231 cells [1] = assay: Cell viability assay (Prestoblue) in MDA-MB-231 cells expressing GFP, GFP-Mena or GFP-Mena^INV; details: 72 h; for effect of Mena or Mena^INV expression on fraction of viable cells / response to drug: range of concentrations
Experimental: Cell viability assays were performed in a 96-well plate. 5,000 cells were plated per well and treated with drug 24 hours later. Cell viability was assayed 72 hours later using the PrestoBlue Cell Viability Reagent (Life Technologies), according to manufacturer's protocol. Fluorescence was measured and normalized to cells exposed to vehicle. The activity area was calculated from doseresponse plots using Matlab. All measurements were repeated in triplicate.

[2] = tested on: MDA-MB-231 xenograft tumors; assay: Xenograft tumor growth in NOD-SCID mice with chemotherapy treatment; assay type: in vivo, mouse; details: three doses Taxol/paclitaxel 10 mg/kg or two doses Doxorubicin 5 mg/kg
Experimental: Mena or Mena^INV expression blocks Taxol efficacy on tumors in treated animals. Mice with xenograft tumors were generated by injection of MDA-MB-231 cells expressing GFP (Control), GFP-Mena (Mena) or GFP-Mena^INV (Mena^INV) into the mammary fat pads of NOD-SCID mice. […] Tumor size was measured before and after treatment. […] These in vivo findings are consistent with the results obtained in the in vitro data, and indicate that Men/Mena^INV promotes resistance to Taxol as judged by tumor growth.
Xenograft tumor generation and in vivo chemotherapy treatment. All animal experiments were approved by the MIT Division of Comparative Medicine. 2 million MDA-MB-231 cells expressing different MENA isoforms (in PBS and 20% collagen I) were injected into the 4th right mammary fat pad of six week-old female NOD-SCID mice (Taconic). When the tumors reached 1 cm in diameter, mice were treated every five days with either three doses of paclitaxel at 10 mg/kg in 1% DMSO, 3% PEG (MW 400), 1% Tween 80 in PBS by intra-peritoneal injection. In parallel, mice were treated with only in 1% DMSO, 3% PEG (MW 400), 1% Tween 80 in PBS as a vehicle control. One day after the last injection, tumors were measured and mice were use for intravital imaging and then sacrificed. Their tumors and lungs were fixed in 10% formalin overnight, their bone marrow were collected using PBS and cultured in DMEM with 10% fetal bovine serum. The number of tumor cell colonies in cultured bone morrow was counted 1 month after collection. The number of metastasis in each lobe of the lung were counted from lung H&E stained sections visualized by light microscopy and counted by two blinded individuals. Each tumor group contained 3-5 mice.
MENA isoform expression is associated with increased tumor growth in vivo during paclitaxel treatment. Whether MENA-associated paclitaxel resistance could also be observed in vivo was examined. Xenograft tumors were generated by injecting MDA-MB-231 cells expressing MENA isoforms into the mammary fat pads of NOD-SCID mice. Mice were treated with paclitaxel once tumors reached 1 cm in diameter (FIG. 30A).

microtubules (MT) = assay: Immunofluorescence ratio of Glu-MT (stable) to Tyr-MT (dynamic); assay type: cell-based, human; details: 231-MENA^INV cells, 24 hours
Experimental: Immunofluorescence. Glass bottom dishes (Mattek) were coated with Collagen at 0.1 mg/mL diluted in PBS and 50 μg/mL FN for 1 hour at 37° C. Cells were plated for 1 hour, and then treated with paclitaxel alone or in combination with MEKi for 24 hours. Cells were fixed for 20 minutes in 4% paraformaldehyde in PHEM buffer with 0.1% Gluteraldehyde, and then quenched with sodium borohydrate for 5 minutes. Cells were blocked with 2% BSA in TBS-0.1%TritonX-100 for 30 minutes, and incubated with primary antibodies and then secondary antibodies for 1 hour each, at room temperature. Z series of images were taken on an Applied Precision DeltaVision microscope using Softworx acquisition, an Olympus 60×1.4 NA plan apo objective and a Photometrics CoolSNAP HQ camera. Images were deconvolved using Deltavision Softworx software and objective specific point spread function. Images were analyzed with ImageJ, where the whole cell intensity levels of Tyr- or Glu-MT was measured. Images are pooled from at least 3 independent experiments.
Paclitaxel promotes cell death by increasing the stability of MTs, and pathways driving increased MT dynamics are known to promote resistance to taxanes. Therefore, MT structure and dynamics in MENA isoform expressing cells was examined during paclitaxel treatment. […] Post-translational modification of MTs can regulate their dynamics, and antibodies that detect such modifications can be used to infer the relative dynamics of MT populations; in particular, MT tyrosination indicates a dynamic MT state, while de-tyrosination of MTs is associated with increased stability. The relative abundance of stable (Glu-MT) vs. dynamic (Tyr-MT) MTs was measured in individual cells by immunofluorescence with anti-Glu-MT and anti-Tyr-MT antibodies (FIGS. 37A, 37B).
(§1) The MAPK signaling cascade is among the key pathways known to interact with MTs. Both ERK1/2 interact with MTs; MT stabilization by paclitaxel increases ERK phosphorylation and, in turn, ERK pathway activation increases MT dynamics.

ERK, Akt = assay: Western blot for pERK Y204, ERK, pAkt473 and Akt; assay type: cell-based, human; details: 231-MENA^INV cells; 10 nM paclitaxel, 0.1 μM MEKi, 72 hours
Experimental: (§2) Western blot. Cells were lysed in 25 mM Tris, 150 mM NaCl, 10% glycerol, 1% NP 40 and […] EDTA with a protease Mini-complete protease inhibitors (Roche) and a phosphatase inhibitor cocktail (PhosSTOP, Roche) at 4° C. for 20 minutes. Protein lysates were separated by SDS-PAGE, transferred to a nitrocellulose membrane and blocked with Odyssey Blocking Buffer (LiCor). Membranes were incubated with primary antibody overnight at 4° C. and Licor secondary antibodies at room temperature for 1 hour. Protein level intensity was measured with Image J.
as §1

MDA-MB-231 cells [3] = assay: Proliferation assay (cell count) with combinations of paclitaxel and MEKi; assay type: cell-based, human
Mena = Mena expression in cultured cells after taxane treatment (Western blot, FACS of GFP); assay type: cell-based, human; details: MDA-MB-231 populations expressing GFP, GFP-MENA or GFP-MENA^INV
Experimental: Taxol treatment induces increased Mena protein expression in vitro and in vivo. As high level of Mena or Mena^INV expression correlated with low response to Taxo, we hypothesized that Taxol treatment might affect Mena expression. […]. After 72 h of treatment with the drug, the expression level of Mena was 70% higher than in vehicle-treated cells.
as §2
Paclitaxel treatment selects for high MENA expression in vitro and in vivo. The Examples so far indicate that increased MENA or MENA^INV expression levels are associated with reduced responses to paclitaxel. The effect of paclitaxel treatment on levels of MENA expression in cell populations in vitro and in vivo was examined. First, endogenous MENA expression by Western Blot in 5 breast cancer cell lines that were exposed to 100 nM of paclitaxel or a vehicle control were analyzed (FIG. 33A).

T47D cells = assay: Wound closure assay and morphology (circularity), T47D cells with Mena^11a-specific shRNA; assay type: cell-based, human; details: for percent of cell free region filled (gap closure): 48 hours; for circularity of cells at the free edge of the monolayer: perfect circularity=1
From the text: (§3) The Mena^11a knockdown procedure employed shRNAs was based on 97-mer oligos (Invitrogen) comprising the shRNAs amplified by PCR with primers having EcoRI/XhoI sites, and were cloned into the pMSCV-miR30-MLS-GFP vector (gift from Michael Hemann, Koch Institute, MIT). Oligo sequences are:
Signal intensities from antibodies or rhodamine-labeled barbed ends along the cell edge were quantified with a contour-based ImageJ macro. We measured the distribution of signal along the membrane plotted as a function of distance from the cell edge (mean±SEM) and the sum of the intensities in the first 0.65 μm from the cell edge. Circularity measures were performed by manually tracing the cells at the free edge of the epithelial monolayer, and by using the circularity plugin built in ImageJ. In this analysis, a circularity value of 1 indicates a perfect circle while, as the value approaches 0, it indicates an elongated cell shape. For quantitative imaging, we used the same hardware configuration and exposure time for all cell lines analyzed in the same experiment. […] Extracted pixel intensities were exported to Microsoft Excel for analysis and Graph-Pad Prism for graphing.
(§4) Mena^11a-specific depletion enhances cell migration and membrane protrusion. Previously, the effects of Mena^11a on cancer cell motility were evaluated in assays utilizing ectopic expression. To study the role of endogenously expressed Mena^11a on cancer cell motility, we used Mena^11a-KD cells, including T47D and SKBr3 human breast cancer cells which have >80% reduction of Mena^11a protein levels (FIG. 15A-B, 15E-F), in wound closure assays. […] T47D cells yielded similar results (FIG. 15C-D), although complete closure of the control T47D cells took longer than with SKBr3 cells. […] Therefore, depletion of the Mena^11a isoform from cells that normally express both Mena and Mena^11a increased cell migration rates.
Consistent with changes in migration, we observed that the morphology of T47D Mena^11a-KD cells differed from control-KD cells, specifically at the free edge of the monolayer (FIG. 151).

SKBr3 cells = assay: Wound closure assay, SKBr3 cells with Mena^11a-specific shRNA; assay type: cell-based, human; details: twenty-four hours
Experimental: as §3, §4

## N.N.[Cl][Pt][Cl] [Cisplatin]
MDA-MB-231 cells [1]
  effect of Mena or Mena^INV expression on fraction of viable cells / response to drug: neither GFP-Mena nor GFP-MenaINV expression affected the fraction of viable MDA-MB-231 cells differently than the GFP controls
MDA-MB-231 cells [1]; listed as cisplatin
  effect of Mena or Mena^INV expression on fraction of viable cells / response to drug: neither MENA nor MENA^INV expression affected the response

## COc1cccc2c1C(=O)c1c(O)c3c(c(O)c1C2=O)C[C@@](O)(C(=O)CO)C[C@@H]3O[C@H]1C[C@H](N)[C@H](O)[C@H](C)O1 [Doxorubicin]
[2]; GFP (Control) tumors
  growth of control tumors compared to vehicle: significantly decreased growth of control tumors
[2]; Mena or Mena^INV expressing tumors
  growth / response of Mena or Mena^INV tumors: decreased response
MDA-MB-231 cells [1]
  effect of Mena or Mena^INV expression on fraction of viable cells / response to drug: neither MENA nor MENA^INV expression affected the response

## COc1cc2c(cc1OC)CN(CCc1ccc(-n3nnc(-c4cc(OC)c(OC)cc4NC(=O)c4cc(=O)c5ccccc5o4)n3)cc1)CC2 [HM30181]
MDA-MB-231 cells [1]; 231-Control cells, HM30181 100 nM
  fraction of viable cells on co-treatment with 100 nM paclitaxel: negligibly affected
MDA-MB-231 cells [1]; 231-MENA^INV cells, 100 nM paclitaxel
  paclitaxel efficacy on co-treatment with MDR1 inhibitor: did not increase paclitaxel efficacy

## O=C(NOC[C@H](O)CO)c1ccc(F)c(F)c1Nc1ccc(I)cc1F [PD0325901]
Microtubules (MT); paclitaxel plus MEKi
  stable MTs relative to dynamic MTs, both drugs simultaneously: induced increases in stable MTs relative to dynamic MTs
Microtubules (MT); single drug
  stable MTs relative to dynamic MTs, either drug alone: had no effect
ERK, Akt
  paclitaxel-induced ERK phosphorylation: blocked
MDA-MB-231 cells [3]; 231-MENA and 231-MENA^INV cells
  concentrations needed to obtain high levels of cell death relative to 231-Control cells: higher concentrations of each drug were needed
MDA-MB-231 cells [3]; all cell lines, 72 hours, both drugs simultaneously
  combination of paclitaxel and MEKi in proliferation assay (cell death): significant additive effects

## CC(=O)O[C@@]12CO[C@@H]1C[C@H](O)[C@@]1(C)C(=O)[C@H](O)C3=C(C)[C@@H](OC(=O)[C@H](O)[C@@H](NC(=O)OC(C)(C)C)c4ccccc4)C[C@@](O)([C@@H](OC(=O)c4ccccc4)[C@H]21)C3(C)C [docetaxel]
Mena
  FACS analysis of GFP expression levels after taxane treatment: selected for cells expressing higher levels of GFP-MENA or GFP-MENA^INV, but not of GFP

B1: sh-1C: paired control shRNA for sh-1, SEQ ID NO. 7 (nucleic acid)
guide: TGCTGTTGACAGTGAGCGAATGATTCCTTAAACAGCCCAATAGTGAAGCCACAGATGTATTGGGCTGTTTAAGGAATCATGTGCCTACTGCCTCGGA
T47D cells
  percent of cell free region filled (gap closure): 50.41% ±3.7
  circularity of cells at the free edge of the monolayer: 0.683
SKBr3 cells
  percent of initially cell-free region filled (gap closure): 49.03% ±4.2

B2: sh-1: shRNA targeting the 11a insertion of Mena^11a, SEQ ID NO. 6 (nucleic acid)
guide: TGCTGTTGACAGTGAGCGCATGATTCATTACACAGACCAATAGTGAAGCCACAGATGTATTGGTCTGTGTAATGAATCATATGCCTACTGCCTCGGA
T47D cells
  percent of cell free region filled (gap closure): 78.39% ±4.8
  circularity of cells at the free edge of the monolayer: 0.614
SKBr3 cells
  percent of initially cell-free region filled (gap closure): 74.76% ±4.8

B3: sh-2C: paired control shRNA for sh-2, SEQ ID NO. 9 (nucleic acid)
guide: TGCTGTTGACAGTGAGCGAAACAGGTCATAGGATTAATTATAGTGAAGCCACAGATGTATAATTAATCCTATGACCTGTTCTGCCTACTGCCTCGGA
T47D cells
  percent of cell free region filled (gap closure): 40.38% ±4.2
  circularity of cells at the free edge of the monolayer: 0.640
SKBr3 cells
  percent of initially cell-free region filled (gap closure): 55.24% ±1.8

B4: sh-2: shRNA targeting the 11a insertion of Mena^11a, SEQ ID NO. 8 (nucleic acid)
guide: TGCTGTTGACAGTGAGCGCAACAGGTCCTATGATTCATTATAGTGAAGCCACAGATGTATAATGAATCATAGGACCTGTTATGCCTACTGCCTCGGA
T47D cells
  percent of cell free region filled (gap closure): 70.20% ±8.8
  circularity of cells at the free edge of the monolayer: 0.509
SKBr3 cells
  percent of initially cell-free region filled (gap closure): 77.84% ±3.6
